Test results as given in patent publication US12692274B2, “Tetrahydroisoquinoline derivatives for the treatment of red blood disorders and inflammatory diseases” (Sanofi, priority 2020, dated 2026).
pIC50: −log10 of the molar value. “And” between values parts separate entries of the source, which are not always exact repeats. Identical values can stand only once.

molecular target: HIS-Keap1 full length / Biotin-Nrf2 (16-mer) (Homo sapiens, UniProt Q14145); test: biochemical
Sequence (Q14145 whole entry): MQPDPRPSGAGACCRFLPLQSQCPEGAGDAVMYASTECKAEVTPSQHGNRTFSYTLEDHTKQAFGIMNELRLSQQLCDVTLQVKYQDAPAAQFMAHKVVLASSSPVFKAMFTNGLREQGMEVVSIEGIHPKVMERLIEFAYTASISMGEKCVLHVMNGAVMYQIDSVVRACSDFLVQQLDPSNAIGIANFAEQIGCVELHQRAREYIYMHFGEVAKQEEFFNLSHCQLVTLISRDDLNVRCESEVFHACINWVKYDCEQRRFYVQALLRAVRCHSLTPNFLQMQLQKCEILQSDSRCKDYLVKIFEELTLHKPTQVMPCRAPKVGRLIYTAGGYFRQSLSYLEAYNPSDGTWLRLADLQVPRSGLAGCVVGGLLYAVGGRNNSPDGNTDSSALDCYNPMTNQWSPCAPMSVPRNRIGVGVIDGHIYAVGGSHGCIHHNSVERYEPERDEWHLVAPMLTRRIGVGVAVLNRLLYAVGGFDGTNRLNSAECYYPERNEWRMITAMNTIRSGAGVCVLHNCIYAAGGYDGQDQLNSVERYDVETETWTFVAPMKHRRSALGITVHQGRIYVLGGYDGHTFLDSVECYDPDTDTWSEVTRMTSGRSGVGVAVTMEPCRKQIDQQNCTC

| SMILES | pIC50 | IC50 |
| --- | --- | --- |
| O=C(O)CC1c2ccc3c(c2)CN(CC3)C(=O)c2ccc(cc2)OCC=CCn2nnc3cc1ccc32 (mixture of isomers) [Compound 419, 2-[(12E)-20-oxo-15-oxa-8,9,10,21-tetrazahexacyclo[19.5.3.216,19.13,7.06,10.024,28]dotriaconta-1(27),3,5,7(32),8,12,16(31),17,19(30),24(28),25-undecaen-2-yl]acetic Acid] | 8.24 and 7.72 and 7.77 and 7.97 |  |
| Cc1c2cccc1C(=O)N1CCc3ccc(cc3C1)C(CC(=O)O)c1ccc3c(c1)nnn3C/C=C/CO2 (centres unmarked) [Compound 429] | 6.95 and 7.08 |  |
| CC(C)(C(=O)O)C1c2ccc3c(c2)CN(CC3)C(=O)c2c(F)cc(cc2F)CCCCCn2nnc3cc1ccc32 (centres unmarked) [Compound 282] |  | 0.4 nM (2×) and 0.3 nM (3×) and 1.1 nM |
| Cc1c2ccc3c1nnn3CCCCCc1ccc(c3ccn(C)c13)C(=O)N1CCc3ccc(cc3C1)[C@@H]2CC(=O)O [Compound 33] | 9.40 and 9.52 |  |
| O=C(O)CC1c2ccc3c(c2)CN(CC3)C(=O)c2ccc(cc2)CCCCCn2nnc3c(Cl)c1ccc32 (centres unmarked) [Compound 249] | 8.96 and 8.89 |  |
| O=C(O)CC1c2ccc3c(c2)CN(CC3)C(=O)c2cccc(c2)OC/C=C/CCn2nnc3cc1ccc32 (centres unmarked) [Compound 439] | 7.28 and 6.92 and 6.91 and 6.97 |  |
| Cc1c2ccc3c1nnn3CCCCCOc1cccc(c1)C(=O)N1CCc3ccc(cc3C1)C2CC(=O)O (centres unmarked) [Compound 421] | 8.00 and 8.08 |  |
| Cc1c2ccc3c1nnn3CCCCCCc1ccc3c(c1)cc(n3C)C(=O)N1CCc3ccc(cc3C1)[C@@H]2[C@@H](C)C(=O)O [Compound 28] | 9.40 and 9.30 |  |
| O=C(O)CC1c2ccc(nc2)OCC/C=C\COc2cccc(c2)C(=O)N2CCc3ccc1cc3C2 (centres unmarked) [Compound 345] | 5.54 and 5.47 |  |
| O=C(O)C[C@@H]1c2ccc3c(c2)CN(CC3)C(=O)c2cccc(c2)OCCCCCn2nnc3cc1ccc32 [Compound 433] | 6.54 and 6.69 |  |
| Cc1c2cccc1C(=O)N1CCc3ccc(cc3C1)C(CC(=O)O)c1ccc3c(nnn3CCCCCO2)c1C (centres unmarked) [Compound 408] | 8.80 and 8.82 and 7.88 and 8.30 |  |
| Cc1ccc2cc1OC/C=C/CCn1nnc3cc(ccc31)C(CC(=O)O)c1ccc3c(c1)CN(CC3)C2=O (centres unmarked) [Compound 418] | 6.41 and 6.42 |  |
| O=C(O)CC1c2ccc3c(c2)CN(CC3)S(=O)(=O)c2ccc(cc2)OCCCCCCn2nnc3cc1ccc32 (centres unmarked) [Compound 404] | 6.18 and 6.57 |  |
| O=C(O)CC1c2ccc3c(c2)CN(CC3)C(=O)c2cccc(c2)OCCOCCn2nnc3cc1ccc32 (centres unmarked) [Compound 410] | 5.98 and 5.72 |  |
| Cc1c2ccc3nn(nc13)CC/C=C/COc1cccc(c1)C(=O)N1CCc3ccc(cc3C1)C2CC(=O)O (centres unmarked) [Compound 425] | 5.36 and 5.27 |  |
| Cc1ccc2cc1C(=O)N1CCc3ccc(cc3C1)C(CC(=O)O)c1ccc3c(c1)nnn3CC/C=C/CO2 (centres unmarked) [Compound 426] | 8.04 and 7.94 |  |
| Cc1ccc2cc1C(=O)N1CCc3ccc(cc3C1)C(CC(=O)O)c1ccc3c(c1)nnn3CCCCO2 (centres unmarked) [Compound 431] | 6.99 and 7.01 |  |
| CC(C)(C(=O)O)[C@H]1c2ccc3c(c2)CN(CC3)C(=O)c2c(F)cc(cc2F)OCCCCCCn2nnc3cc1ccc32 [Compound 235] |  | 0.5 nM and 0.6 nM (2×) |
| Cc1c2cccc1C(=O)N1CCc3ccc(cc3C1)C(CC(=O)O)c1ccc3c(c1)nnn3CCCCCO2 (centres unmarked) [Compound 420] | 8.07 and 8.08 |  |
| O=C(O)CC1c2ccc3c(c2)CN(CC3)C(=O)c2cccc(c2)OC/C=C/CCn2nnc3ccc1cc32 (centres unmarked) [Compound 436] | 5.57 and 5.47 |  |
